How the values were obtained:
KYSE-270 = assay: Cytotoxicity against Homo sapiens (human) KYSE-270 cells assessed as inhibition of cell survival after 24 hr by MTT assay; assay type: functional, cell-based; conditions: KYSE-270, 24 h
[1] = Cytotoxicity against Homo sapiens (human) HET-1A cells assessed as inhibition of cell survival after 24 hr by MTT assay; assay type: cell-based
[2] = Cytotoxicity against Homo sapiens (human) KYSE-30 cells assessed as inhibition of cell survival after 24 hr by MTT assay; assay type: functional, cell-based; conditions: KYSE-30, 24 h
[3] = Cytotoxicity against Homo sapiens (human) KYSE-150 cells assessed as inhibition of cell survival after 24 hr by MTT assay; assay type: functional, cell-based; conditions: KYSE-150, 24 h

| SMILES | IC50 (KYSE-270) | IC50 [1] | IC50 [2] | IC50 [3] |
| --- | --- | --- | --- | --- |
| COc1ccccc1NC(c1ccco1)P(=O)(OC)OC (centres undefined) | 77.4 µM | > 400 µM | 38 µM | 51.3 µM |
| COc1ccc(NC(c2ccco2)P(=O)(OC)OC)cc1 (centres undefined) | 224 µM | > 400 µM | 316 µM | 166 µM |
| COc1ccc(NC(c2ccco2)P(=O)(Oc2ccccc2)Oc2ccccc2)cc1 (centres undefined) | 205 µM | > 400 µM | > 400 µM | 209 µM |
| Cc1ccccc1NC(c1ccco1)P(=O)(Oc1ccccc1)Oc1ccccc1 (centres undefined) | > 400 µM | > 400 µM | 251 µM | > 400 µM |
| Cc1cccc(NC(c2ccco2)P(=O)(Oc2ccccc2)Oc2ccccc2)c1 (centres undefined) | > 400 µM | > 400 µM | 380 µM | > 400 µM |
| Cc1ccc(NC(c2ccco2)P(=O)(Oc2ccccc2)Oc2ccccc2)cc1 (centres undefined) | > 400 µM | > 400 µM | > 400 µM | > 400 µM |
| COc1cccc(NC(c2ccco2)P(=O)(OCc2ccccc2)OCc2ccccc2)c1 (centres undefined) | 251 µM | > 400 µM | 251 µM | 200 µM |
| Cc1cccc(/N=C/c2ccco2)c1 [N-FURFURYLIDENE-M-TOLUIDINE] | 111 µM | > 400 µM | 158 µM | 50.1 µM |
| COc1ccccc1/N=C/c1ccco1 [N-FURFURYLIDENE-O-ANISIDINE] | > 400 µM | > 400 µM | > 400 µM | > 400 µM |
| COc1ccc(/N=C/c2ccco2)cc1 [N-FURFURYLIDENE-P-ANISIDINE] | > 400 µM | > 400 µM | > 400 µM | > 400 µM |
| Cc1ccc(/N=C\c2ccco2)cc1 [N-FURFURYLIDENE-P-TOLUIDINE] | 398 µM | > 400 µM | > 400 µM | 380 µM |

From ChEMBL document CHEMBL3046157, “Synthesis of new N-arylamino(2-furyl)methylphosphonic acid diesters, and in vitro evaluation of their cytotoxicity against esophageal cancer cells” (Med Chem Res, 2013)
